From patent publication US20050187208A1 (priority 2004, published 2005)

Experiments:
cannabinoid receptors [1] = test: Mouse tetrad model, agonistic effect (hot plate, hypothermia, catalepsy, sedation); assay type: in vivo; design: key to Agonistic effect A: Hot-Plate test: % MPE = (PT−B)/(PC−B)×100; key to Agonistic effect D: Sedation: % sedation = mean score (0-3)/3×100; Agonistic effect B: Hypothermia: unit not given here; details: 5 mg/kg i.v., male NMRI mice; for Agonistic effect A: Hot-Plate test: 15 minutes after injection; for Agonistic effect B: Hypothermia / Agonistic effect C: Catalepsy / Agonistic effect D: Sedation: 20 minutes after injection
Source text: (§1) Substances with affinity for cannabinoid receptors are known to produce a wide range of pharmacological effects. It is also known that intravenous administration of a substance with affinity for cannabinoid receptors in mice produces analgesia, hypothermia, sedation and catalepsy. Individually, none of these effects can be considered as proof that a tested substance has affinity for cannabinoid-receptors, since all of these effects are common for various classes of centrally active agents. However, substances, which show all of these effects, i.e. substances that are active in this so-called tetrad model are considered to have affinity for the cannabinoid receptors. It has further been shown that cannabinoid receptor antagonists are higly effective in blocking the effects of a cannabinoid agonist in the mouse tetrad model.
(§2) The tetrad model is described, for example, in the publication of A. C. Howlett et al, International Union of Pharmacology XXVII. Classification of Cannabinoid Receptors, Pharmacol Rev 54, 161-202, 2002 and David R. Compton et al., “In-vivo Characterization of a Specific Cannabinoid Receptor Antagonist (SR141716A): Inhibition of Tetrahydrocannbinol-induced Responses and Apparent Agonist Activity”, J. Pharmacol. Exp. Ther. 277, 2, 586-594, 1996. The corresponding parts of the description are hereby incorporated by reference.
(§3) Male NMRI mice with a weight of 20-30 g (Harlan, Barcelona, Spain) are used in all of the following experiments.
(§4) Before testing in the behavioral procedures given below, mice are acclimatized to the experimental setting. Pre-Treatment control values are determined for analgesia hot plate latency (in seconds), rectal temperature, sedation and catalepsy.
(§5) In order to determine the agonistic activty of the substance to be tested, the mice are injected intravenously with the substance to be tested or the vehicle alone. 15 minutes after injection, latency in hot plate analgesia is measured. Rectal temperature, sedation and catalepsy are measured 20 minutes after injection.
(§6) The hot plate analgesia is determined according to the method described in Woolfe D. et al. “The evaluation of analgesic action of pethidine hydrochloride (Demerol)”, J. Pharmacol. Exp. Ther. 80, 300-307, 1944. The respective description is hereby incorporated by reference and forms part of the present disclosure.
(§7) The mice are placed on a hot plate (Harvard Analgesimeter) at 55±0.5° C. until they show a painful sensation by licking their paws or jumping and the time for these sensations to occur is recorded. This reading is considered the basal value (B). The maximum time limit the mice are allowed to remain on the hot plate in absence of any painful response is 40 seconds in order to prevent skin damage. This period is called the cut-off time (PC).
(§8) Fifteen minuts after the administration of the substance to be tested, the mice are again placed on the hot plate and the afore described procedure is repeated. This period is called the post-treatment reading (PT).
(§9) The degree of analgesia is calculated from the formula: % MPE of Analgesia=(PT−B)/(PC−B)×100 • MPE Maximum possible effect. Determination of Sedation and Ataxia
(§10) Sedation and ataxia is determined according to the method described in Desmet L. K. C. et al. “Anticonvulsive properties of.Cinarizine and Flunarizine in Rats and Mice”, Arzneim. -Forsch. (Frug Res) 25, 9, 1975. The respective description is hereby incorporated by reference and forms part of the present disclosure.
The chosen scoring system is • 0: no ataxia; • 1: doubful; • 2: obvious calmness and quiet; • 3 pronounced ataxia; prior to as well as after treatment.
The percentage of sedation is determined according to the formula: % of sedation=arithmetic mean/3×100 Hypothermia: […]

[2] = biological target: T1, transfected human CB1 receptor (Homo sapiens, UniProt P21554); test: In-vitro determination of affinity to CB1 receptor, radioligand [^3H]-CP55940; assay type: binding; details: for inhibition at 1 µM: read-out: CB1 Receptor % Inhibition 10^−6 M
T1 construct: purchased Receptor Biology, Inc
T1 sequence (P21554 whole entry): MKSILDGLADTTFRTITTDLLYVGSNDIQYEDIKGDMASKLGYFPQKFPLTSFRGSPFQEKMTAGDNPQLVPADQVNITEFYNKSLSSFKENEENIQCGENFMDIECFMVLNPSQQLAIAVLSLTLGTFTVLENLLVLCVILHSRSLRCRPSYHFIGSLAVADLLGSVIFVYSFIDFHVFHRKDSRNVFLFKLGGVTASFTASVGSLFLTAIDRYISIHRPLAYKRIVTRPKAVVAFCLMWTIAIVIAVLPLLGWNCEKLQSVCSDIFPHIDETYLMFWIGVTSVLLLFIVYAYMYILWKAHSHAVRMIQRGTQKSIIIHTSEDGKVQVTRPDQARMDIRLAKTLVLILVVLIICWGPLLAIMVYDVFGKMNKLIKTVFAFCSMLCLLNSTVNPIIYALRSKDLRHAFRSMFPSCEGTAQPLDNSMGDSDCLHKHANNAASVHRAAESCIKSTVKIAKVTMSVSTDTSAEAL
Experimental: (§11) I. In-vitro Determination of Affinity to CB1/CB2-Rezeptors
(§12) The in-vitro determination of the affinity of the inventive substituted azetidine compounds to CB1/CB2-Receptors is carried out as described in the publication of Ruth A. Ross, Heather C. Brockie et al., “Agonist-inverse agonist characterization at CB1 and CB2 cannabinoid receptors of L-759633, L759656 and AM630”, British Journal of Pharmacology, 126, 665-672, (1999). The respective parts of the descriptions are hereby incorporated by reference and form part of the present disclosure. The transfected human CB1 and CB2 receptor are obtained from Receptor Biology, Inc. The radioligand used for both receptors is [^3H]-CP55940.
(§13) The affinity of the inventive substituted azetidine compounds to CB1/CB2 receptors is determined as described above.

cannabinoid receptors [3] = test: Mouse tetrad model, antagonistic effect against Win 55212-2; assay type: in vivo; design: unit not given here; details: 5 mg/kg i.v. prior to Win 55212-2 1.25 mg/kg i.v.; male NMRI mice
Source text: as §1, §2, §3, §4, §5
In order to determine the antagonistic activity the identical procedure is used as for the determination of the agonistic effects, but with the difference that the substance to be evaluated for its antagonistic activity is injectected 5 minutes before the intravenous injection of 1.25 mg/kg Win-55,212 a known cannabinoid-receptor agonist.
as §6, §7, §8, §9, §10
The chosen scoring system is • 0: no ataxia; • 1: doubful; • 2: obvious calmness and quiet; • 3 pronounced ataxia; prior to as well as after treatment. […]

[4] = biological target: T2, transfected human CB2 receptor (Homo sapiens, UniProt P34972); test: In-vitro determination of affinity to CB2 receptor, radioligand [^3H]-CP55940; assay type: binding; details: 10^−6 M
T2 construct: purchased Receptor Biology, Inc
T2 sequence (P34972 whole entry): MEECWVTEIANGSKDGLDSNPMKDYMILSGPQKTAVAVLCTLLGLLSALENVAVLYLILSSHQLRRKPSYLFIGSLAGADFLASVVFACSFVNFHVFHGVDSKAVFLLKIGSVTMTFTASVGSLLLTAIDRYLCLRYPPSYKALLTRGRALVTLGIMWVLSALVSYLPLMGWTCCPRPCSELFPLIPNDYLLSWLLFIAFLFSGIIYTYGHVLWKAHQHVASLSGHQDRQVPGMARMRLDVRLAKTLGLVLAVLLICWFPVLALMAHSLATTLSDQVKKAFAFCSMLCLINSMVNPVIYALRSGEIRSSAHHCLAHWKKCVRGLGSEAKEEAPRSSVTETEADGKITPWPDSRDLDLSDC
Experimental: as §11, §12, §13

SMILES: C[C@H]1[C@H](NS(=O)(=O)c2ccc(F)cc2)CN1C(c1ccc(Cl)cc1)c1ccc(Cl)cc1 [Example 5, (2S, 3R)-N-{1-[Bis-(4-chlorophenyl)methyl]-2-methylazetidin-3-yl}-4-fluoro-benzene sulfonamide]
- Agonistic effect A: Hot-Plate test (cannabinoid receptors [1]): 2
- Agonistic effect B: Hypothermia (cannabinoid receptors [1]): 0
- Agonistic effect C: Catalepsy (cannabinoid receptors [1]): 0
- Agonistic effect D: Sedation (cannabinoid receptors [1]): 0
- Ki ([2]; radioligand [^3H]-CP55940): 0.264 µM
- inhibition at 1 µM [2]: 59%
- Antagonistic Effect A: Hot-Plate test (cannabinoid receptors [3]): 77
- Antagonistic Effect B: Hypothermia (cannabinoid receptors [3]): 100
- Antagonistic Effect C: Catalepsy (cannabinoid receptors [3]): 71
- Antagonistic Effect D: Sedation (cannabinoid receptors [3]): 57
- melting point: 154 to 157 °C
- inhibition at 1 µM [4]: 4.6%

SMILES: C[C@H]1[C@H](NS(=O)(=O)c2cccs2)CN1C(c1ccc(Cl)cc1)c1ccc(Cl)cc1 [Example 6, Thiophene-2-sulfonic acid {(2S,3R)-1-[bis-(4-chloro-phenyl)-methyl]-2-methyl-azetidin-3-yl}-amide]
- Agonistic effect A: Hot-Plate test (cannabinoid receptors [1]): 0
- Agonistic effect B: Hypothermia (cannabinoid receptors [1]): 0
- Agonistic effect C: Catalepsy (cannabinoid receptors [1]): 0
- Agonistic effect D: Sedation (cannabinoid receptors [1]): 0
- inhibition at 1 µM [2]: 66%
- Antagonistic Effect A: Hot-Plate test (cannabinoid receptors [3]): 32
- Antagonistic Effect B: Hypothermia (cannabinoid receptors [3]): 32
- Antagonistic Effect C: Catalepsy (cannabinoid receptors [3]): 51
- Antagonistic Effect D: Sedation (cannabinoid receptors [3]): 46
- melting point: 72 to 76 °C
- inhibition at 1 µM [4]: 13.5%
